# Literature values as cited in US9199026B2, “Modular extracorporeal systems and methods for treating blood-borne diseases” (SOMERSET GROUP ENTERPRISES, INC., priority 2011, dated 2015).
# Like-named read-outs stand apart in the source and are kept apart here.
# Tests used:
# [1] = not given; remark: listed apart in the source
# [2] = not given; remark: listed apart in the source
# bacteria = conditions: for Spectrum: first line of the cell pair 'Spectrum, activity'; for activity (bactericidal / static): second line of the cell pair 'Spectrum
compound,measurement,setting,value
NCc1ccccc1CC(=O)N[C@@H]1C(=O)N2C(C(=O)O)=C(CSc3nnnn3CC(=O)O)CS[C@H]12 [Ceforanide],Percent removed By CAPD,in vivo,Negligible
same,Percent removed By hemodialysis,[1]; in vivo,20-50%
CC(=O)OCC1=C(C(=O)O)N2C(=O)[C@@H](NC(=O)CSc3ccncc3)[C@H]2SC1 [Cephapirin],Percent removed By hemodialysis,[1]; hemodialysis,20%
CC(=O)NC[C@H]1CN(c2ccc(N3CCOCC3)c(F)c2)C(=O)O1 [Linezolid],Percent removed By hemodialysis,[1]; hemodialysis,33%
COC1=C(C(=O)O)N2C(=O)[C@@H](NC(=O)[C@H](N)C3=CCC=CC3)[C@H]2SC1 [Cefroxadine],Percent removed By hemodialysis,[1]; in vivo,50%
CO/N=C(\C(=O)N[C@@H]1C(=O)N2C(C(=O)O)=C(COC(N)=O)CS[C@H]12)c1ccco1 [Cefuroxime],Percent removed By CAPD,in vivo,20%
CO/N=C(\C(=O)N[C@@H]1C(=O)N2C(C(=O)O)=C(COC(N)=O)CS[C@H]12)c1ccco1 [Cefuroxime sodium],pKa,[2]; no group stated,2.5
CC(=O)OCC1=C(C(=O)O)N2C(=O)[C@@H](NC(=O)CC#N)[C@H]2SC1 [Cephacetrile],Percent removed By hemodialysis,[1]; in vivo,50%
Gentamycin,Spectrum,bacteria,"Gram negative,"
same,activity (bactericidal / static),bacteria,bactericidal
CC1(C)S[C@@H]2[C@H](NC(=O)[C@H](N)c3ccc(O)cc3)C(=O)N2[C@H]1C(=O)O [Amoxicillin],Percent removed By hemodialysis,[1]; in vivo,30%
Nc1ccc(C(=O)O)c(O)c1 [Para-aminosalicylic Acid],Percent removed By hemodialysis,[1]; hemodialysis,50%
CO/N=C(\C(=O)N[C@@H]1C(=O)N2C(C(=O)[O-])=C(C[n+]3cccc4c3CCC4)CS[C@H]12)c1csc(N)n1 [Cefpirome],Percent removed By CAPD,in vivo,Negligible (12%)
same,Percent removed By hemodialysis,[1]; in vivo,32-48%
N[C@@H]1[C@H]2CN(c3nc4c(cc3F)c(=O)c(C(=O)O)cn4-c3ccc(F)cc3F)C[C@@H]12 [Trovafloxacin],Spectrum,bacteria,"Broad,"
same,activity (bactericidal / static),bacteria,bactericidal
CC(=O)OCC1=C(C(=O)O)N2C(=O)[C@@H](NC(=O)Cc3cccs3)[C@H]2SC1 [Cephalothin],Percent removed By hemodialysis,[1]; in vivo,50%
CC1(C)S[C@@H]2[C@H](NC(=O)[C@H](NC(=O)N3CCN(S(C)(=O)=O)C3=O)c3ccccc3)C(=O)N2[C@H]1C(=O)O [Mezlocillin],Percent removed By CAPD,in vivo,24%
same,Percent removed By hemodialysis,[1]; in vivo,20-25%
CC1(C)S[C@@H]2[C@H](/N=C/N3CCCCCC3)C(=O)N2[C@H]1C(=O)O [Amdinocillin],Percent removed By CAPD,in vivo,Negligible (<4%)
same,Percent removed By hemodialysis,[1]; in vivo,32-70%
Colistin,pKa,[2]; no group stated,12.1
same,Spectrum,bacteria,"Gram negative,"
same,activity (bactericidal / static),bacteria,bactericidal
O=C(O)c1cn(C2CC2)c2cc(N3CCNCC3)c(F)cc2c1=O [Ciprofloxalin],activity (bactericidal / static),bacteria,bactericidal
C[C@@H](O)[C@H]1C(=O)N2C(C(=O)O)=C(SCCN=CN)C[C@H]12 [Imipenem],Percent removed By CAPD,in vivo,Negligible
same,Percent removed By hemodialysis,[1]; in vivo,80-90%
CO/N=C(\C(=O)N[C@@H]1C(=O)N2C(C(=O)O)=C(CSc3nc(=O)c(=O)[nH]n3C)CS[C@H]12)c1csc(N)n1 [Ceftriaxone sodium],pKa,[2]; (NH2),3.2
CO/N=C(\C(=O)N[C@@H]1C(=O)N2C(C(=O)O)=C(CSc3nnnn3C)CS[C@H]12)c1csc(N)n1 [Cefmenoxime],Percent removed By CAPD,in vivo,Negligible (<10%)
same,Percent removed By hemodialysis,[1]; in vivo,16-51%
NNC(=O)c1ccncc1 [Isoniazid],Percent removed By hemodialysis,[1]; in vivo,75%
CC(C)(O/N=C(\C(=O)N[C@@H]1C(=O)N2C(C(=O)[O-])=C(C[n+]3ccccc3)CS[C@H]12)c1csc(N)n1)C(=O)O [Ceftazidime],Percent removed By CAPD,in vivo,Negligible
same,Percent removed By hemodialysis,[1]; in vivo,50%
CN(C)c1cc(NC(=O)CNC(C)(C)C)c(O)c2c1C[C@H]1C[C@H]3[C@H](N(C)C)C(O)=C(C(N)=O)C(=O)[C@@]3(O)C(O)=C1C2=O [Tigecycline],pKa,[2]; no group stated,4.4
same,Spectrum,bacteria,"Broad,"
same,activity (bactericidal / static),bacteria,static
COCC1=C(C(=O)O)N2C(=O)[C@@H](NC(=O)/C(=N\OC)c3csc(N)n3)[C@H]2SC1 [Cefpodoxime],Percent removed By hemodialysis,[1]; in vivo,50%
Cc1nnc(SCC2=C(C(=O)O)N3C(=O)[C@@H](NC(=O)Cn4cnnn4)[C@H]3SC2)s1 [Cefazolin],Percent removed By CAPD,CAPD,20%
same,Percent removed By hemodialysis,[1]; hemodialysis,50%
CCCCCCCCCC(=O)N[C@@H](Cc1c[nH]c2ccccc12)C(=O)N[C@H](CC(N)=O)C(=O)N[C@@H](CC(=O)O)C(=O)N[C@@H]1C(=O)NCC(=O)N[C@@H](CCCN)C(=O)N[C@@H](CC(=O)O)C(=O)N[C@H](C)C(=O)N[C@@H](CC(=O)O)C(=O)NCC(=O)N[C@H](CO)C(=O)N[C@@H]([C@H](C)CC(=O)O)C(=O)N[C@@H](CC(=O)c2ccccc2N)C(=O)O[C@@H]1C [Daptomycin],Spectrum,bacteria,"Gram positive,"
same,activity (bactericidal / static),bacteria,bactericidal
C[C@@H](O)[C@H]1C(=O)N2C(C(=O)[O-])=C(SC3Cn4cnc[n+]4C3)[C@H](C)[C@H]12 (stereo partly shown) [Biapenem],Percent removed By hemodialysis,[1]; in vivo,90%
COc1cc(Cc2cnc(N)nc2N)cc(OC)c1OC [Trimethoprim],Percent removed By CAPD,in vivo,Negligible (7%)
same,Percent removed By hemodialysis,[1]; in vivo,50%
CO/N=C(\C(=O)N[C@@H]1C(=O)N2C(C(=O)O)=CCS[C@H]12)c1csc(N)n1 [Ceftizoxime],Percent removed By CAPD,in vivo,Negligible (16%)
same,Percent removed By hemodialysis,[1]; in vivo,50%
NCC[C@H](O)C(=O)N[C@@H]1C[C@H](N)[C@@H](O[C@H]2O[C@H](CN)[C@@H](O)[C@H](O)[C@H]2O)[C@H](O)[C@H]1O[C@H]1O[C@H](CO)[C@@H](O)[C@H](N)[C@H]1O [Amikacin],pKa,[2]; no group stated,12.7
same,Spectrum,bacteria,"Gram negative,"
same,activity (bactericidal / static),bacteria,bactericidal
CO/N=C(\C(=O)N[C@@H]1C(=O)N2C(C(=O)O)=C(CSc3nc(=O)c(=O)[nH]n3C)CS[C@H]12)c1csc(N)n1 [Ceftriaxone],Percent removed By CAPD,in vivo,Negligible (4.5%)
same,Percent removed By hemodialysis,[1]; in vivo,40%
Nc1nc(NC2CC2)c2ncn([C@H]3C=C[C@@H](CO)C3)c2n1 [Abacavir],Percent removed By hemodialysis,[1]; in vivo,24%
Nc1nc(/C(=C/CC(=O)O)C(=O)N[C@@H]2C(=O)N3C(C(=O)O)=CCS[C@H]23)cs1 [Ceftibuten],Percent removed By hemodialysis,[1]; in vivo,39%
CC[C@H]1OC(=O)[C@H](C)[C@@H](O[C@H]2C[C@@](C)(OC)[C@@H](O)[C@H](C)O2)[C@H](C)[C@@H](O[C@@H]2O[C@H](C)C[C@H](N(C)C)[C@H]2O)[C@](C)(O)C[C@@H](C)CN(C)[C@H](C)[C@@H](O)[C@]1(C)O [Azithromycin],pKa,[2]; no group stated,8.1
CO/N=C(\C(=O)N[C@@H]1C(=O)N2C(C(=O)O)=C(CSc3nc(C)c(CC(=O)O)s3)CS[C@H]12)c1csc(N)n1 [Cefodizime],Percent removed By CAPD,in vivo,Negligible (15%)
same,Percent removed By hemodialysis,[1]; in vivo,50%
CO[C@@]1(NC(=O)C(C(=O)O)c2ccsc2)C(=O)N2[C@@H](C(=O)O)C(C)(C)S[C@@H]21 (stereo partly shown) [Temocillin],Percent removed By CAPD,CAPD,Negligible (6%)
same,Percent removed By hemodialysis,[1]; hemodialysis,50%
CC1=C(C(=O)O)N2C(=O)[C@@H](NC(=O)[C@H](N)c3ccccc3)[C@H]2SC1 [Cephalexin],Percent removed By CAPD,in vivo,30%
same,Percent removed By hemodialysis,[1]; in vivo,50-75%
CO[C@@]1(NC(=O)C(C(=O)O)c2ccc(O)cc2)C(=O)N2C(C(=O)O)=C(CSc3nnnn3C)CO[C@@H]21 (stereo partly shown) [Moxalactam],Percent removed By CAPD,in vivo,Negligible (15-20%)
same,Percent removed By hemodialysis,[1]; in vivo,30-50%
CN[C@@H]1[C@H](O)[C@H](NC)[C@H]2O[C@@]3(O)C(=O)C[C@@H](C)O[C@H]3O[C@@H]2[C@H]1O [Spectinomycin],Percent removed By hemodialysis,[1]; in vivo,50%
CO[C@@]1(NC(=O)Cc2cccs2)C(=O)N2C(C(=O)O)=C(COC(N)=O)CS[C@@H]21 [Cefoxitin],Percent removed By CAPD,in vivo,Negligible
same,Percent removed By hemodialysis,[1]; in vivo,50%
N[C@@H](C(=O)N[C@@H]1C(=O)N2C(C(=O)O)=C(Cl)CS[C@H]12)c1ccccc1 [Cefaclor],Percent removed By hemodialysis,[1]; in vivo,33%
NC[C@H]1O[C@H](O[C@H]2[C@H](O)[C@@H](O[C@H]3O[C@H](CO)[C@@H](O)[C@H](N)[C@H]3O)[C@H](N)C[C@@H]2N)[C@H](N)C[C@@H]1O [Tobramycin],Spectrum,bacteria,"Gram negative,"
same,activity (bactericidal / static),bacteria,bactericidal
Penicillin,Percent removed By hemodialysis,[1]; hemodialysis,50%
Nc1ccn(C[C@@H](CO)OCP(=O)(O)O)c(=O)n1 [Cidofovir],Percent removed By CAPD,CAPD,Negligible
same,Percent removed By hemodialysis,[1]; hemodialysis,50%
CC=CC1=C(C(=O)O)N2C(=O)[C@@H](NC(=O)[C@H](N)c3ccc(O)cc3)[C@H]2SC1 [Cefprozil],Percent removed By hemodialysis,[1]; in vivo,55%
NC(=O)c1cc[n+](CC2=C(C(=O)O)N3C(=O)[C@@H](NC(=O)[C@@H](c4ccccc4)S(=O)(=O)[O-])[C@H]3SC2)cc1 [Cefsulodin],Percent removed By hemodialysis,[1]; hemodialysis,60%
CO[C@@]1(NC(=O)CSCC#N)C(=O)N2C(C(=O)O)=C(CSc3nnnn3C)CS[C@@H]21 [Cefmetazole],Percent removed By hemodialysis,[1]; in vivo,60%
Polymixin B,Spectrum,bacteria,"G−,"
same,activity (bactericidal / static),bacteria,bactericidal
C[C@@H](O)[C@H]1C(=O)N2C(C(=O)O)=C(S[C@@H]3CN[C@H](C(=O)N(C)C)C3)[C@H](C)[C@H]12 [Meropenem],Percent removed By hemodialysis,[1]; in vivo,50-70%
CC1(C)S[C@@H]2[C@H](NC(=O)C(C(=O)O)c3ccccc3)C(=O)N2[C@H]1C(=O)O (stereo partly shown) [Carbenicillin],Percent removed By hemodialysis,[1]; in vivo,50%
CO/N=C(\C(=O)N[C@@H]1C(=O)N2C(C(=O)[O-])=C(C[N+]3(C)CCCC3)CS[C@H]12)c1csc(N)n1 [Cefipime],Percent removed By CAPD,CAPD,26%
same,Percent removed By hemodialysis,[1]; hemodialysis,40-70%
CC1(C)S[C@@H]2[C@H](NC(=O)Cc3ccccc3)C(=O)N2[C@H]1C(=O)O [Penicillin G],pKa,[2]; no group stated,2.8
CN(C)CCn1nnnc1SCC1=C(C(=O)O)N2C(=O)[C@@H](NC(=O)Cc3csc(N)n3)[C@H]2SC1 [Defotiam],Percent removed By hemodialysis,[1]; in vivo,30-40%
